Assay results as given in ChEMBL document CHEMBL1201862, “PubChem BioAssay data set” (2004).
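48-hour exposure; five concentrations; linearly interpolated endpoints. Here, GI50 denotes the concentration required for 50% inhibition of growth.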 Active and inactive are the calls of the source. Rule as the data show it: active = GI50 up to about 1.1 µM and inactive = higher.

Key:
Test in all cases: DTP human tumour cell line panel, 48 h
CAKI-1 = tested on: CAKI-1
LOX IMVI = tested on: LOX IMVI
OVCAR-3 = tested on: OVCAR-3
UACC-62 = tested on: UACC-62
EKVX = tested on: EKVX
ACHN = tested on: ACHN
PC-3 = tested on: PC-3
T47D = tested on: T47D
SNB-19 = tested on: SNB-19
A498 = tested on: A498
RPMI-8226 = tested on: RPMI-8226
OVCAR-8 = tested on: OVCAR-8
SK-MEL-2 = tested on: SK-MEL-2
SW-620 = tested on: SW-620
DU-145 = tested on: DU-145
UACC-257 = tested on: UACC-257
A549 = tested on: A549
SR = tested on: SR
TK-10 = tested on: TK-10
HOP-62 = tested on: HOP-62

Measured: GI50

COc1ccc2cc(C(=O)CCC(=O)O)ccc2c1
inactive: CAKI-1 > 100 µM | LOX IMVI > 100 µM | OVCAR-3 > 100 µM | UACC-62 > 100 µM | EKVX > 100 µM | ACHN > 100 µM | PC-3 > 100 µM | T47D > 100 µM | SNB-19 > 100 µM | A498 > 100 µM | RPMI-8226 > 100 µM | OVCAR-8 > 100 µM | SK-MEL-2 > 100 µM | SW-620 > 100 µM | DU-145 > 100 µM | UACC-257 > 100 µM | A549 > 100 µM | SR > 100 µM | TK-10 > 100 µM | HOP-62 > 100 µM

[N-]=[N+]=C1C(=O)c2ccccc2-c2ccccc21
inactive: CAKI-1 37.4 µM | LOX IMVI 25.9 µM | OVCAR-3 40.9 µM | UACC-62 22.3 µM | EKVX 30.5 µM | ACHN 38.6 µM | PC-3 25.8 µM | T47D 28.3 µM | SNB-19 45.8 µM | A498 16.3 µM | RPMI-8226 26.9 µM | OVCAR-8 30.6 µM | SK-MEL-2 29.4 µM | SW-620 37.4 µM | DU-145 30.9 µM | UACC-257 36.7 µM | A549 30.4 µM | SR 24.5 µM | TK-10 54 µM | HOP-62 41.2 µM

CC(C(=O)OCc1ccccc1)(c1ccco1)N1C(=O)OC(c2ccccc2)C1c1ccccc1 (stereo not given)
inactive: CAKI-1 > 100 µM | LOX IMVI 14.7 µM | OVCAR-3 > 100 µM | UACC-62 97.1 µM | EKVX 99.3 µM | ACHN > 100 µM | PC-3 6.01 µM | T47D 5.96 µM | SNB-19 > 100 µM | A498 > 59.8 µM | RPMI-8226 4.37 µM | OVCAR-8 > 100 µM | SK-MEL-2 > 100 µM | SW-620 > 100 µM | DU-145 > 100 µM | UACC-257 > 100 µM | A549 > 100 µM | SR > 34.8 µM | TK-10 > 100 µM | HOP-62 > 100 µM

Cc1nc2ccccc2c(=O)n1/N=C(\N=N\c1cc(Cl)ccc1Cl)c1ccccc1
inactive: CAKI-1 > 57.3 µM | LOX IMVI 40.6 µM | OVCAR-3 53.2 µM | UACC-62 45.8 µM | EKVX 20.7 µM | ACHN > 84.9 µM | PC-3 55.3 µM | T47D > 100 µM | SNB-19 29 µM | A498 > 94.2 µM | RPMI-8226 41.4 µM | OVCAR-8 65.9 µM | SK-MEL-2 60.5 µM | SW-620 32.1 µM | DU-145 > 100 µM | UACC-257 17.4 µM | A549 71 µM | SR 44.8 µM | TK-10 > 93.5 µM | HOP-62 12.4 µM
